The values below come from patent US9986740B2, “Methods of identifying insect-TRPA1 modulators” (BRANDEIS UNIVERSITY, priority 2010, dated 2018).

Substitutions are numbered along the chain they refer to. “Also recorded” adds a separate entry of the source. Read-outs that look alike come from different tables or passages of the source.

One test relates to mammalian TRPA1s. The following applies: conserved cysteine-independent; cited from earlier work.
In test [1] the target is T1, dTRPA1 (Drosophila melanogaster, UniProt Q7Z020).
T1 sequence (Q7Z020 1-1197): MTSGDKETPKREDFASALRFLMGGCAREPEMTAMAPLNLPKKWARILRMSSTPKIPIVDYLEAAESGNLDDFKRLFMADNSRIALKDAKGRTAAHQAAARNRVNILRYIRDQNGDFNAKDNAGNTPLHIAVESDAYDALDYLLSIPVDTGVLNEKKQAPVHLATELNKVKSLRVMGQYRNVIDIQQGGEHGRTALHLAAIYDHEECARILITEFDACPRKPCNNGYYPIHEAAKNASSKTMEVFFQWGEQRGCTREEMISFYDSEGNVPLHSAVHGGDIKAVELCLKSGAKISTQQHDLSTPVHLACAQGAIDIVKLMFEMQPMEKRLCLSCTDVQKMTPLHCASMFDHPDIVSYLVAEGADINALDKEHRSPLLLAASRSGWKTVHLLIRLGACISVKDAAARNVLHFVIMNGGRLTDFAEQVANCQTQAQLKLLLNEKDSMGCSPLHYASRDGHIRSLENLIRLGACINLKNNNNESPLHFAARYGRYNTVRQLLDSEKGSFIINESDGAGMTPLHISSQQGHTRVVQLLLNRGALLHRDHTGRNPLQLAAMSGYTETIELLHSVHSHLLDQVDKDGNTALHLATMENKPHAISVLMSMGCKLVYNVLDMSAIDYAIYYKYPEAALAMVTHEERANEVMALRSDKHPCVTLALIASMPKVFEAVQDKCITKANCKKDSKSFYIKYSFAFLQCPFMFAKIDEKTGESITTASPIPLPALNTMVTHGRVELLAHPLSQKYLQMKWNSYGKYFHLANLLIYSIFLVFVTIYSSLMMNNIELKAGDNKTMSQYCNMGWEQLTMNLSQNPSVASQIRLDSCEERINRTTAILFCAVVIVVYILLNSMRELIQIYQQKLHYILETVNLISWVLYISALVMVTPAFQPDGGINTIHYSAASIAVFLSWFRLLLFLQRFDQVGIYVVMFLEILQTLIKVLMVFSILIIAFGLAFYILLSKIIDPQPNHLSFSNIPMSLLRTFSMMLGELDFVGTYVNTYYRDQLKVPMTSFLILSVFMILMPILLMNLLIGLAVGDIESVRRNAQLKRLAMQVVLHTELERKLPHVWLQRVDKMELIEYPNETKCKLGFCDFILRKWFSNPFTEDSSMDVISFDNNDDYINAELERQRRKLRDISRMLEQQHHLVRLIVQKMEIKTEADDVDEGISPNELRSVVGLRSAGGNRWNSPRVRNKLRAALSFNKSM
In words: Two-electrode voltage clamping on Xenopus laevis oocytes expressing dTRPA1. The test is classed as cell-based. A general note: In two-electrode clamp one electrode senses voltage and the other passes current.

The test system of the next test is Drosophila flies. In words: Proboscis extension response (PER) behavioral assay. The settings on record: for Effect on PER in dTrpA1 loss-of-function mutants / Effect on PER in painless mutants / Effect on proboscis extension response (PER) / feeding: ingestion permitted; for Acceptance on first offering: first of five tastant offerings; for Effect on PER in painless mutants: painless mutant flies; for Effect on proboscis extension response (PER) / feeding: 350 mM sucrose with 2 mM AITC. The test is classed as in vivo, Drosophila melanogaster.

Another test relates to mammalian nociceptors. The settings on record: cited from earlier work.
The subject of another test is nematodes. The settings on record: in vivo; cited from earlier work.
The next test relates to flies. The following applies: in vivo; cited from earlier work.
Another test concerns uninjected oocytes. In words: Two-electrode voltage clamping on uninjected oocytes. It counts as cell-based, Xenopus laevis. The following applies: 3 mM AITC, 1 mM CA, 0.1 mM NMM.
For test [2], the target named is T1, dTRPA1. The settings on record: cited from earlier work.
The test system of another test is agTRPA1. The settings on record: cited from earlier work.
For a further test, the target named is T2, dTRPA1-2C (Drosophila melanogaster, UniProt Q7Z020, C650S/C670S).
T2 construct: expressed in transfected cells; host or cells: Xenopus laevis oocytes
T2 sequence (Q7Z020 1-1197 C650S/C670S): T1 sequence (Q7Z020 1-1197) with C650S, C670S
In words: Two-electrode voltage clamping on oocytes expressing mutant dTRPA1-2C. It counts as cell-based. The settings on record: cysteines 650 and 670 mutated to serines; 0.1, 0.5, 1.0 mM AITC. The protocol:
Oocyte and larval physiology were performed largely as described in Hamada, et al., Nature 454, 217-220 (2008) and Pulver, et al., J Neurophysiol 101, 3075-3088 (2009), with additional details provided in below. Chemical sensitivities of wild type and mutant (dTRPA1-2C) channels were assessed by normalizing all currents to currents observed at 1 mM AITC.
Agonist-evoked dTRPA1 currents were recorded as previously described in (Hamada, et al., Nature 454, 217-220 (2008)), with the following modifications. Agonists of interest were added to the oocyte perfusion buffer (96 mM NaCl, 1 mM MgCl2, 4 mM KCl, and 5 mM HEPES, pH 7.6). Voltage was initially held at −60 mV, and a 300-ms voltage ramp (−60 mV to 60 mV) per sec was applied to dTRPA1- or AgTRPA1-expressing oocytes during perfusion of agonist-containing buffer. Typical oocyte resting membrane potentials were between −25 and −60 mV. […] EC50s for wild type dTRPA1 channels were obtained at −60 mV, with AITC provided for 60 sec with 30 sec intervals between increasing concentrations.
Substitutions of cysteine/lysine residues in dTrpA1 were made by swapping a region of wild type cDNA sequence including codons of cysteine or lysine with mutated cassettes. […]

The mark [3] stands for this setting: wild-type dTRPA1 in Xenopus oocytes.
Setting [4] is: wild type flies, 10 mM NMM or 6 mM CA.

Regarding `CN1CCCC1c1cccnc1` (centres unmarked) [nicotine], the “Activity on mammalian TRPA1s” value in the test with mammalian TRPA1s is on record as “agonists”. Further, at dTRPA1 [1], the “Activation of dTRPA1” value is given as “did not activate” and the “Response of dTRPA1 expressing oocytes” value is “did not respond”.

In the case of `Cn1c(=O)c2c(ncn2C)n(C)c1=O` [caffeine], the “Effect on PER in dTrpA1 loss-of-function mutants” value with Drosophila flies is given as “inhibited”. Besides, in the test with Drosophila flies (wild type flies, tastant contacts only legs, 350 mM sucrose with 100 mM caffeine, 2 mM AITC, 10 mM NMM or 6 mM CA), the “Effect on PER when only leg contact with food permitted” value is recorded as “robustly inhibited”.

`CCCCN(CCC(=O)OCC)C(C)=O` [IR-3535]: the “Activation of dTRPA1” value on dTRPA1 [1] (setting [3]) is on record as “failed to activate”.

In the case of 2-aminoethoxydiphenyl borate [2-APB], in the test on mammalian TRPA1s, the “Activity on mammalian TRPA1s” value was “agonists”.

With `COc1cc(CNC(=O)CCCC/C=C/C(C)C)ccc1O` [capsaicin], the “Effect on mammalian nociceptors” value in the test with mammalian nociceptors is listed as “activates”. The “Acute response in nematodes” value in the test with nematodes is “no acute response”. For the same molecule, in the test on flies, the “Acute response in flies” value is given as “no acute response”.

On to `CC1(C)[C@H](C(=O)O[C@H](C#N)c2cccc(Oc3ccccc3)c2)[C@@H]1C=C(Br)Br` [deltamethrin], for which the “Activation of dTRPA1” value on dTRPA1 [1] is reported as “failed to activate”.

As to `CN1C(=O)C=CC1=O` [NMM, N-methyl-maleimide], the “Response of uninjected oocytes” value in the test on uninjected oocytes is “did not respond”. Besides, in the test with Drosophila flies, the “Effect on PER in dTrpA1 loss-of-function mutants” value was “no reduction”, the “Acceptance on first offering” value is “usually accepted” and the “Effect on PER in painless mutants” value is “significantly inhibited”. In the test with Drosophila flies (ingestion-independent PER assay of Al-Anzi et al.), the “Effect on ingestion in previously published ingestion-independent PER assay” value is listed as “no effect”. Besides, the “Change of the compound's effect on PER upon dTRPA1 knockdown” value in the test with Drosophila flies (tissue-specific dTRPA1 RNAi with Dll-Gal4, MJ94-Gal4 or Gr66a-Gal4, 10 mM NMM in 350 mM sucrose) is “robustly reduced”. The “Effect on proboscis extension response (PER) / feeding” value with Drosophila flies (setting [4]) is “robustly inhibited”.

For the molecule `N.N.N.N.N.N.N.N.N.N.N.N.N.N.[Cl-].[Cl-].[Cl-].[Cl-].[Cl-].[Cl-].[O-2].[O-2].[Ru+3].[Ru+3].[Ru+4]` [ruthenium red], the “Inhibition of warmth-activated dTRPA1 currents” value on dTRPA1 [2] is recorded as “partially inhibits”. Also, the “Inhibition of warmth-activated agTRPA1 currents” value with agTRPA1 was “partially inhibits”. Further, the “Inhibition of agonist-elicited currents” value at dTRPA1 [1] (100 μM ruthenium red applied) is given as “inhibited”.

`C=CCN=C=S` [AITC, allyl isothiocyanate]: the “AITC sensitivity of dTRPA1-2C versus wild type” value at dTRPA1-2C is “low sensitivity; also recorded: significantly decreased”. Further, the “Response of uninjected oocytes” value in the test with uninjected oocytes was “did not respond”. For the same molecule, in the test on Drosophila flies, the “Effect on PER in dTrpA1 loss-of-function mutants” value was “no reduction”, the “Acceptance on first offering” value is “usually accepted” and the “Effect on PER in painless mutants” value is given as “significantly inhibited”. For the same molecule, the “Effect on proboscis extension response (PER) / feeding” value in the test on Drosophila flies (setting [4]) is “dramatically inhibited”. The “Activation of dTRPA1” value on dTRPA1 [1] is “activated”.

On to `CCN(CC)C(=O)c1cccc(C)c1` [DEET, N,N-diethyl-m-toluamide], for which, on dTRPA1 [1] (setting [3]), the “Activation of dTRPA1” value is recorded as “failed to activate”.
